In the supplement of paper PMC11061612:

What was measured:
CHL-1 (Melanoma) [1] = assay: combination Emax (second highest fraction inhibited in the dose matrix, 72 h); higher = more inhibition; extreme values may be limits of the assay
Outline: (§1)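 Bliss excess equals the observed combination effect minus the expected value EA + EB − EA·EB, where EA and EB are the effects of each agent alone. Combination Emax is the second-highest inhibition within the matrix. Inhibition was scaled from CellTiter-Glo 2.0 luminescence, with 0 set by vehicle wells and 1 by blank wells, after 72 hours of two-drug dosing of cells plated in 1536-well plates.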

[2] = tested on: LOUCY (T-Lymphoblastic Leukemia); assay: as above
Outline: as §1

[3] = tested on: PC-14 (Lung Adenocarcinoma); assay: as above
Outline: as §1

[4] = tested on: FLO-1 (Esophageal Adenocarcinoma); assay: as above
Outline: as §1

[5] = tested on: CML-T1 (Chronic Myelogenous Leukemia); assay: as above
Outline: as §1

[6] = tested on: NCI-H1755 (Lung Adenocarcinoma); assay: as above
Outline: as §1

[7] = tested on: COLO-684 (Endometrial Carcinoma); assay: as above
Outline: as §1

[8] = tested on: RMG-I (Ovarian Carcinoma); assay: as above
Outline: as §1

KYM-1 (Rhabdomyosarcoma) [9] = assay: as above
Outline: as §1

[10] = tested on: NKM-1 (Acute Myeloid Leukemia); assay: as above
Outline: as §1

[11] = tested on: NCI-H810 (Non-Small Cell Lung Carcinoma); assay: as above
Outline: as §1

[12] = tested on: EB-3 (Burkitt's Lymphoma); assay: as above
Outline: as §1

[13] = tested on: SK-MM-2 (Plasma Cell Myeloma); assay: as above
Outline: as §1

[14] = tested on: KYSE-70 (Esophageal Squamous Cell Carcinoma); assay: as above
Outline: as §1

[15] = tested on: SW684 (Other Solid Carcinomas); assay: as above
Outline: as §1

[16] = tested on: PANC-02-03 (Pancreatic Carcinoma); assay: as above
Outline: as §1

[17] = tested on: OV-90 (Ovarian Carcinoma); assay: as above
Outline: as §1

[18] = tested on: HCC-44 (Lung Adenocarcinoma); assay: as above
Outline: as §1

[19] = tested on: Becker (Low Grade Glioma); assay: as above
Outline: as §1

[20] = tested on: LAMA-84 (Chronic Myelogenous Leukemia); assay: as above
Outline: as §1

CHL-1 (Melanoma) [21] = assay: Bliss excess, mean over the matrix (fraction); higher = more synergy
Outline: as §1

[22] = tested on: LOUCY (T-Lymphoblastic Leukemia); assay: as above
Outline: as §1

[23] = tested on: PC-14 (Lung Adenocarcinoma); assay: as above
Outline: as §1

[24] = tested on: FLO-1 (Esophageal Adenocarcinoma); assay: as above
Outline: as §1

[25] = tested on: CML-T1 (Chronic Myelogenous Leukemia); assay: as above
Outline: as §1

[26] = tested on: NCI-H1755 (Lung Adenocarcinoma); assay: as above
Outline: as §1

[27] = tested on: COLO-684 (Endometrial Carcinoma); assay: as above
Outline: as §1

[28] = tested on: RMG-I (Ovarian Carcinoma); assay: as above
Outline: as §1

KYM-1 (Rhabdomyosarcoma) [29] = assay: as above
Outline: as §1

[30] = tested on: NKM-1 (Acute Myeloid Leukemia); assay: as above
Outline: as §1

[31] = tested on: NCI-H810 (Non-Small Cell Lung Carcinoma); assay: as above
Outline: as §1

[32] = tested on: EB-3 (Burkitt's Lymphoma); assay: as above
Outline: as §1

[33] = tested on: SK-MM-2 (Plasma Cell Myeloma); assay: as above
Outline: as §1

[34] = tested on: KYSE-70 (Esophageal Squamous Cell Carcinoma); assay: as above
Outline: as §1

[35] = tested on: SW684 (Other Solid Carcinomas); assay: as above
Outline: as §1

[36] = tested on: PANC-02-03 (Pancreatic Carcinoma); assay: as above
Outline: as §1

[37] = tested on: OV-90 (Ovarian Carcinoma); assay: as above
Outline: as §1

[38] = tested on: HCC-44 (Lung Adenocarcinoma); assay: as above
Outline: as §1

[39] = tested on: Becker (Low Grade Glioma); assay: as above
Outline: as §1

[40] = tested on: LAMA-84 (Chronic Myelogenous Leukemia); assay: as above
Outline: as §1

Structure (SMILES)	combination Emax (CHL-1 (Melanoma) [1])	combination Emax [2]	combination Emax [3]	combination Emax [4]	combination Emax [5]	combination Emax [6]	combination Emax [7]	combination Emax [8]	combination Emax (KYM-1 (Rhabdomyosarcoma) [9])	combination Emax [10]	combination Emax [11]	combination Emax [12]	combination Emax [13]	combination Emax [14]	combination Emax [15]	combination Emax [16]	combination Emax [17]	combination Emax [18]	combination Emax [19]	combination Emax [20]	Bliss excess (CHL-1 (Melanoma) [21])	Bliss excess [22]	Bliss excess [23]	Bliss excess [24]	Bliss excess [25]	Bliss excess [26]	Bliss excess [27]	Bliss excess [28]	Bliss excess (KYM-1 (Rhabdomyosarcoma) [29])	Bliss excess [30]	Bliss excess [31]	Bliss excess [32]	Bliss excess [33]	Bliss excess [34]	Bliss excess [35]	Bliss excess [36]	Bliss excess [37]	Bliss excess [38]	Bliss excess [39]	Bliss excess [40]
C[C@@H](Nc1cc(F)cc(F)c1)c1cc(C(=O)N(C)C)cc2c(=O)cc(N3CCOCC3)oc12 [AZD8186] + C1CN(CCC1(C(=O)N[C@@H](CCO)C2=CC=C(C=C2)Cl)N)C3=NC=NC4=C3C=CN4 [AZD5363] (first compound max 10 µM, 7x7, partner max 10 µM)	0.433	0.494	0.399	0.43	0.53	0.642	0.615	0.401	0.4	0.615	0.17	0.324	0.202	0.233	0.572	0.237	0.208	0.609	0.646	0.198	-0.0392	0.0819	0.0006	-0.0114	-0.0629	-0.0436	-0.0839	-0.0317	-0.0245	-0.0454	-0.099	-0.0203	-0.0255	-0.0493	-0.0408	-0.0364	-0.0556	-0.0319	0.0295	-0.0192
CN(CCO)CC[C@H](CSc1ccccc1)Nc1ccc(S(=O)(=O)NC(=O)c2ccc(N3CCC([C@@H](O)c4ccccc4-c4ccc(Cl)cc4)CC3)cc2)cc1S(=O)(=O)C(F)(F)F [AZD4320] + CS(=O)(=O)CCNCc1ccc(-c2ccc3ncnc(Nc4ccc(OCc5cccc(F)c5)c(Cl)c4)c3c2)o1 [Lapatinib] (first compound max 1 µM, 7x7, partner max 10 µM)	0.718	1	0.964	0.842	1	0.702	0.34	0.972	0.395	1	0.518	0.605	1	0.177	0.823	0.875	0.849	0.472	0.912	0.989	0.0412	0.0586	0.0043	0.0298	-0.0077	0.0015	-0.0766	0.0763	0.021	0.0418	-0.0665	-0.0721	0.0729	-0.0022	-0.0169	0.0082	-0.02	-0.0303	0.0497	0.0411
Cc1c2c(nn1C)CSCc1cc(n(C)n1)CSc1cc(c3ccccc3c1)OCCCc1c(C(=O)O)n(C)c3c-2c(Cl)ccc13 [AZD5991] + CC(=O)O[C@H]1C(=O)[C@@]2(C)[C@H]([C@H](OC(=O)c3ccccc3)[C@]3(O)C[C@H](OC(=O)[C@H](O)[C@@H](NC(=O)c4ccccc4)c4ccccc4)C(C)=C1C3(C)C)[C@]1(OC(C)=O)CO[C@@H]1C[C@@H]2O [Paclitaxel] (first compound max 1 µM, 7x7, partner max 3 µM)	1	0.898	0.947	0.928	0.954	0.734	0.558	0.322	1	1	0.871	0.685	0.34	0.534	0.52	0.427	0.379	0.83	0.982	0.895	0.0482	-0.051	-0.0298	-0.0172	-0.0139	-0.0385	0.0057	-0.0514	0.0663	0.0294	0.125	-0.0558	0.0033	0.0855	-0.0818	-0.0131	0.0575	-0.0764	0.0068	-0.0161
Cc1cc2ncnn2cc1Nc1ncc2c(n1)n(C1CCOCC1)c(=O)n2C [AZD7648] + COc1cc([C@@H]2c3cc4c(cc3[C@@H](O[C@@H]3O[C@@H]5CO[C@@H](C)O[C@H]5[C@H](O)[C@H]3O)[C@H]3COC(=O)[C@H]23)OCO4)cc(OC)c1O [Etoposide] (first compound max 10 µM, 7x7, partner max 10 µM)	0.82	0.968	0.757	0.85	1	0.486	0.497	0.386	0.927	0.976	0.598	0.942	0.437	0.168	0.428	0.378	0.399	0.809	0.748	0.948	0.0767	0.0421	0.097	0.0863	0.0779	0.0418	-0.0174	0.01	0.119	0.106	-0.079	0.0374	0.0378	-0.0437	-0.0208	0.0386	-0.0525	0.0009	0.096	0.154
O=C(c1cc(Cc2n[nH]c(=O)c3ccccc23)ccc1F)N1CCN(C(=O)C2CC2)CC1 [Olaparib] + CC1(C)CCC(CN2CCN(c3ccc(C(=O)NS(=O)(=O)c4ccc(NCC5CCOCC5)c([N+](=O)[O-])c4)c(Oc4cnc5[nH]ccc5c4)c3)CC2)=C(c2ccc(Cl)cc2)C1 [Venetoclax] (first compound max 10 µM, 7x7, partner max 1 µM)	0.171	1	0.142	0.209	0.946	0.126	0.259	0.282	0.446	0.976	0.271	0.162	1	0.0967	0.141	0.107	0.204	0.177	0.198	0.211	-0.0355	0.0365	-0.0071	-0.0251	0.0685	-0.0395	-0.0346	-0.0398	-0.0388	0.257	-0.0541	-0.0328	0.0141	-0.039	-0.0606	-0.0386	-0.0377	-0.0278	-0.0134	-0.003
CN(CCO)CC[C@H](CSc1ccccc1)Nc1ccc(S(=O)(=O)NC(=O)c2ccc(N3CCC([C@@H](O)c4ccccc4-c4ccc(Cl)cc4)CC3)cc2)cc1S(=O)(=O)C(F)(F)F [AZD4320] + Nc1ccn([C@@H]2O[C@H](CO)[C@@H](O)C2(F)F)c(=O)n1 [Gemcitabine] (first compound max 1 µM, 7x7, partner max 0.3 µM)	0.686	1	0.699	0.776	1	0.463	0.429	0.866	1	1	0.593	0.469	1	0.159	0.524	0.482	0.88	0.641	0.8	0.979	0.0768	0.0431	0.0292	0.0443	-0.0189	-0.0211	-0.0157	0.0063	0.001	0.0029	-0.0458	0.0031	0.0061	-0.0342	-0.0442	-0.071	0.0718	0.0237	0.0818	0.0346
